Reference: US5137905A, “Heterocyclic acetylenic amines having central nervous system activity” (The Upjohn Company, priority 1991, dated 1992)
Like-named read-outs stand apart in the source and are kept apart here.

Experiments:
HCl-induced writhing = experiment: HCl writhing protection (analgesic activity); type: in vivo, CF1 mice; conditions: Mus musculus, sc; ED50; s.c. in CF1 mice, 30 min before i.p. 0.15% HCl; read-out: CNS Id (ED50 mg/kg) HCl Writh. Protect
Experimental: For determination of analgesic activity, the test compound was injected subcutaneously into a group of four CF1 mice. Thirty minutes later the mice were injected i.p. with 0.15% HCl, 10 ml./kg. Mice were then placed in plastic boxes and observed for fifteen minutes to record the number of animals failing to writhe.

CNS cholinergic receptor [1] = conditions: read-out: CNS Cholinergic Receptor Binding Assays K1 QNB
CNS cholinergic receptor [2] = experiment: CNS cholinergic receptor binding, oxotremorine M ligand; conditions: tritiated oxotremorine M; read-out: CNS Cholinergic Receptor Binding Assays K1 Oxotremorine
[3] = system: oxotremorine-induced body tremor; experiment: Oxotremorine antagonist assay (body tremor); type: in vivo, mice
Experimental: Oxotremorine antagonist assays were performed on groups of six mice weighing 18-22 g. Each was dosed intraperitoneally with the test compound prepared in 0.25% methylcellulose and were placed in individual cages. Twenty minutes later the mice were injected subcutaneously with 0.5 mg/kg of oxotremorine dissolved in saline. Ten minutes later the mice were scored for body tremor. Doses of the compound under study began at 100 mg/kg and were decreased at a 0.5 log interval until no responders were obtained.

[4] = tritiated quinuclidine benzylate (QNB)
[5] = Mus musculus, ip; read-out: Oxot. Antagonist Tremor (ED50)
[6] = Mus musculus, ip, read-out: Oxot. Antagonist Tremor (ED50)

Compound: CNC(=O)N1CCC[C@@H]1C#CCN1CCCC1 [Compound 51G, (R)-N-Methyl 2-[3-(1-pyrrolidinyl)-1-propynyl]-1-pyrrolidinecarboxamide]
- ED50 (HCl-induced writhing): > 50 mg/kg
- Ki (CNS cholinergic receptor [1]; [4]): > 10000 nM
- Ki (CNS cholinergic receptor [2]): 240 nM
- ED50 [3, 5]: > 100 mg/kg

Compound: CCN(CC)CC#CC(C)N1CCN(C)C1=O (stereo not shown) [Compound 34, 1-[4-(Diethylamino)-1-methyl-2-butynyl]-3-methyl-2-imidazolidinone]
- Ki (CNS cholinergic receptor [1]; [4]): 1980 nM
- Ki (CNS cholinergic receptor [2]): 165 nM
- ED50 [3, 5]: > 100 mg/kg

Compound: O=C1NCCN1CC#CCN1CCCC1 [Compound 9, 1-[4-(1-Pyrrolidinyl)-2-butynyl]-2-imidazolidinone]
- ED50 (HCl-induced writhing): 2.2 mg/kg
- Ki (CNS cholinergic receptor [1]; [4]): 800 nM
- Ki (CNS cholinergic receptor [2]): 13 nM
- ED50 [3, 5]: > 3 mg/kg

Compound: CN(C)CC#CCN1CCN(c2ccccc2)C1=O [Compound 21, 1-[4-(Dimethylamino)-2-butynyl]-3-phenyl-2-imidazolidinone]
- ED50 (HCl-induced writhing): > 50 mg/kg
- Ki (CNS cholinergic receptor [1]; [4]): > 10000 nM
- Ki (CNS cholinergic receptor [2]): 840 nM
- ED50 [3, 5]: > 100 mg/kg

Compound: CC1CN(C(=O)OC(C)(C)C)C(=O)N1CC#CCN1CCCC1 (stereo not shown) [Compound 18, t-Butyl 4-methyl-2-oxo-3-[4-(1-pyrrolidinyl)-2-butynyl]-1-imidazolidinecarboxylate]
- ED50 (HCl-induced writhing): 25 mg/kg
- Ki (CNS cholinergic receptor [1]; [4]): 820 nM
- Ki (CNS cholinergic receptor [2]): 180 nM
- ED50 [3, 5]: > 30 mg/kg

Compound: O=C1NCCN1CC#CCn1ccnc1 [Compound 25, 1-[4-(1H-Imidazol-1-yl)-2-butynyl]-2-imidazolidinone]
- Ki (CNS cholinergic receptor [1]; [4]): > 10000 nM
- Ki (CNS cholinergic receptor [2]): 62 nM
- ED50 [3, 5]: > 100 mg/kg

Compound: CN(C)CC#CCn1ccn(C)c1=O [Compound 37, 1,3-Dihydro-1-[4-(dimethylamino)-2-butynyl]-3-methyl-2H-imidazol-2-one]
- Ki (CNS cholinergic receptor [1]; [4]): > 10000 nM
- Ki (CNS cholinergic receptor [2]): 37 nM
- ED50 [3, 5]: > 100 mg/kg

Compound: CC(=O)N1CCN(CC#CCn2cncc2C)C1=O [Compound 26, 1-Acetyl-3-[4-(5-methyl-1H-imidazol-1-yl)-2-butynyl]-2-imidazolidinone]
- Ki (CNS cholinergic receptor [1]; [4]): > 10000 nM
- Ki (CNS cholinergic receptor [2]): 147 nM
- ED50 [3, 5]: 45 mg/kg

Compound: CC1(C)CN(CC#CCN2CCCC2)C(=O)N1 [Compound 12, 4,4-Dimethyl-1-[4-(1-pyrrolidinyl)-2-butynyl]-2-imidazolidinone]
- ED50 (HCl-induced writhing): > 50 mg/kg
- Ki (CNS cholinergic receptor [2]): 820 nM
- ED50 [3, 5]: > 100 mg/kg

Compound: CC(C#CCN1CCCC1)N1CCNC1=O (stereo not shown) [Compound 31, 1-[1-Methyl-4-(1-pyrrolidinyl)-2-butynyl]-2-imidazolidinone]
- Ki (CNS cholinergic receptor [1]; [4]): 135 nM
- Ki (CNS cholinergic receptor [2]): 15 nM
- ED50 [3, 5]: > 30 mg/kg

Compound: CC1CN(C)C(=O)N1CC#CCN1CCCC1 (stereo not shown) [Compound 19, 1,4Dimethyl-3-[4-(1-pyrrolidinyl)-2-butynyl]-2-imidazolidinone]
- ED50 (HCl-induced writhing): > 13 mg/kg
- Ki (CNS cholinergic receptor [1]; [4]): 20 nM
- Ki (CNS cholinergic receptor [2]): 4 nM
- ED50 [3, 5]: 6.6 mg/kg

Compound: COC(=O)N1CCC[C@@H]1C#CCN1CCCC1 [Compound 51J, (R)-Methyl 2-[3-(1-pyrrolidinyl)-1-propynyl]-1-pyrrolidinecarboxylate]
- ED50 (HCl-induced writhing): 11 mg/kg
- Ki (CNS cholinergic receptor [1]; [4]): 460 nM
- Ki (CNS cholinergic receptor [2]): 57 nM
- ED50 [3, 5]: > 100 mg/kg

Compound: N#CN1CCC[C@@H]1C#CCN1CCCC1 [Compound 51I, (R)-2-[3-(1-pyrrolidinyl)-1-propynyl]-1-pyrrolidinecarbonitrile]
- ED50 (HCl-induced writhing): 25 mg/kg
- Ki (CNS cholinergic receptor [1]; [4]): > 10000 nM
- Ki (CNS cholinergic receptor [2]): 310 nM
- ED50 [3, 5]: > 30 mg/kg

Compound: CN1C(=O)N(CC#CCN2CCCC2)CC1(C)C [Compound 13, 3,4,4-Trimethyl-1-[4-(1-pyrrolidinyl)-2-butynyl]-2-imidazolidinone]
- ED50 (HCl-induced writhing): 12.5 mg/kg
- Ki (CNS cholinergic receptor [2]): > 10000 nM
- ED50 [3, 5]: > 100 mg/kg

Compound: CN(C)CC#CCN1CCN(C(=O)OC(C)(C)C)C1=O [Compound 11, t-Butyl 3-[4-(dimethylamino)-2-butynyl]-2-oxo-1-imidazolidinecarboxylate]
- ED50 (HCl-induced writhing): > 50 mg/kg
- Ki (CNS cholinergic receptor [1]; [4]): 4700 nM
- Ki (CNS cholinergic receptor [2]): 160 nM
- ED50 [3, 5]: > 100 mg/kg

Compound: CN1CC(=O)N(CC#CCN2CCCC2)C1=O [Compound 44, 1-Methyl-3-[4-(1-pyrrolidinyl)-2-butynyl]-2,4-imidazolidinedione]
- Ki (CNS cholinergic receptor [1]; [4]): 8710 nM
- Ki (CNS cholinergic receptor [2]): 20 nM
- ED50 [3, 5]: > 30 mg/kg

Compound: CC(=O)N1CCC[C@H]1C#CCN1CCCC1 [Compound 51B, (S)-1-Acetyl-2-[3-(1-pyrrolidinyl)-1-propynyl]pyrrolidine]
- Ki (CNS cholinergic receptor [1]; [4]): 2300 nM
- Ki (CNS cholinergic receptor [2]): 370 nM
- ED50 [3, 5]: > 30 mg/kg

Compound: CC(C#CCN(C)C)N1CCN(C)C1=O (stereo not shown) [Compound 32, 1-[4-(Dimethylamino)-1-methyl-2-butynyl]-3-methyl-2-imidazolidinone]
- Ki (CNS cholinergic receptor [1]; [4]): > 10000 nM
- Ki (CNS cholinergic receptor [2]): 33 nM
- ED50 [3, 5]: > 100 mg/kg

Compound: CN1CCN(CC#CCn2ccnc2)C1=O [Compound 28, 1-[4-(1H-Imidazol-1-yl)-2-butynyl]-3-methyl-2-imidazolidinone]
- Ki (CNS cholinergic receptor [1]): 1870 nM
- Ki (CNS cholinergic receptor [2]): 2 nM
- ED50 [3, 6]: > 100 mg/kg

Compound: CN1C(=O)CN(CC#CCN2CCCC2)C1=O [Compound 43, 3-Methyl-1-[4-(1-pyrrolidinyl)-2-butynyl]-2,4-imidazolidinedione]
- Ki (CNS cholinergic receptor [1]; [4]): > 10000 nM
- Ki (CNS cholinergic receptor [2]): 364 nM
- ED50 [3, 5]: > 100 mg/kg

Compound: C(#C[C@@H]1CCCN1)CN1CCCC1 [Compound 50B, (S)-1-[3-(2-pyrrolidinyl)-2-propynyl]pyrrolidine]
- Ki (CNS cholinergic receptor [1]; [4]): > 10000 nM
- Ki (CNS cholinergic receptor [2]): 1300 nM

Compound: CC(C#CCN(C)C)n1ccn(C)c1=O (stereo not shown) [Compound 40, 1,3-Dihydro-1-methyl-3-[4-(dimethylamino)-1-methyl-2-butynyl]-2H-imidazol-2-one]
- Ki (CNS cholinergic receptor [1]; [4]): > 10000 nM
- Ki (CNS cholinergic receptor [2]): 136 nM
- ED50 [3, 5]: > 100 mg/kg

Compound: CCN(CC)CC#CCN1CCN(C)C1=O [Compound 24, 1-[4-(Diethylamino)-2-butynyl]-3-methyl-2-imidazolidinone]
- Ki (CNS cholinergic receptor [1]; [4]): > 10000 nM
- Ki (CNS cholinergic receptor [2]): 132 nM
- ED50 [3, 5]: > 100 mg/kg

Compound: CC(C#CCn1ccnc1)N1CCN(C)C1=O (stereo not shown) [Compound 35, 3-[4-(1H-Imidazol-1-yl)-1-methyl-2-butynyl]-1-methyl-2-imidazolidinone]
- Ki (CNS cholinergic receptor [1]; [4]): 4010 nM
- Ki (CNS cholinergic receptor [2]): 120 nM
- ED50 [3, 5]: > 100 mg/kg

Compound: CN(C)CC#CCN1C(=O)CN(C)C1=O [Compound 41, 3-[4-(Dimethylamino)-2-butynyl]-1-methyl-2,4-imidazolidinedione]
- Ki (CNS cholinergic receptor [1]; [4]): > 10000 nM
- Ki (CNS cholinergic receptor [2]): 86 nM

Compound: CN1CCCN(CC#CCN2CCCC2)C1=O [Compound 42, Tetrahydro-1-methyl-3-[4-(1-pyrrolidinyl)-2-butynyl]-2(1H)-pyrimidinone]
- Ki (CNS cholinergic receptor [1]; [4]): 1580 nM
- Ki (CNS cholinergic receptor [2]): 229 nM
- ED50 [3, 5]: > 30 mg/kg

Compound: Cc1cncn1CC#CCN1CCNC1=O [Compound 27, 1-[4-(5-Methyl-1H-imidazol-1-yl)-2-butynyl]-2-imidazolidinone]
- Ki (CNS cholinergic receptor [1]; [4]): > 10000 nM
- Ki (CNS cholinergic receptor [2]): 138 nM
- ED50 [3, 5]: > 100 mg/kg

Compound: Cc1cncn1CC#CCn1ccn(C)c1=O [Compound 7, 1,3-Dihydro-1-methyl-3-[4-(5-methyl-1H-imidazol-1-yl)-2-butynyl]-2H-imidazol-2-one]
- Ki (CNS cholinergic receptor [1]; [4]): 614 nM
- Ki (CNS cholinergic receptor [2]): 39 nM
- ED50 [3, 5]: > 100 mg/kg

Compound: CC(C#CCN1CCCC1)N1CCN(C)C1=O (stereo not shown) [Compound 22, 1-Methyl-3-[1-methyl-4-(1-pyrrolidinyl)-2-butynyl]-2-imidazolidinone]
- ED50 [3, 6]: 37 mg/kg

Compound: CCN(CC)CC#CCn1ccn(C)c1=O [Compound 4, 1-[4-(Diethylamino)-2-butynyl]-1,3-dihydro-3-methyl-2H-imidazol-2-one]
- Ki (CNS cholinergic receptor [1]; [4]): > 10000 nM
- Ki (CNS cholinergic receptor [2]): 563 nM
- ED50 [3, 5]: > 100 mg/kg

Compound: C(#C[C@H]1CCCN1)CN1CCCC1 [Compound 50A, (R)-1-[3-(2-pyrrolidinyl)-2-propynyl]pyrrolidine]
- Ki (CNS cholinergic receptor [1]; [4]): 4800 nM
- Ki (CNS cholinergic receptor [2]): 260 nM
- ED50 [3, 5]: > 100 mg/kg

Compound: Cn1ccn(CC#CCn2ccnc2)c1=O [Compound 6, 1,3-Dihydro-1-[4-(1H-imidazol-1-yl)-2-butynyl]-3-methyl-2H-imidazol-2-one]
- Ki (CNS cholinergic receptor [1]; [4]): > 10000 nM
- Ki (CNS cholinergic receptor [2]): 35 nM
- ED50 [3, 5]: > 100 mg/kg

Compound: CC(=O)N1CCC[C@@H]1C#CCN1CCCC1 [Compound 51A, (R)-1-Acetyl-2-[3-(1-pyrrolidinyl)-1-propynyl]pyrrolidine]
- ED50 (HCl-induced writhing): > 50 mg/kg
- Ki (CNS cholinergic receptor [1]; [4]): 120 nM
- ED50 [3, 5]: 3 mg/kg

Compound: Cc1cncn1CC#CCN1CCN(C)C1=O [Compound 29, 1-Methyl-3-[4-(5-methyl-1H-imidazol-1-yl)-2-butynyl]-2-imidazolidinone]
- Ki (CNS cholinergic receptor [1]; [4]): 381 nM
- Ki (CNS cholinergic receptor [2]): 9 nM
- ED50 [3, 5]: > 100 mg/kg

Compound: CC(C#CCN1CCCC1)n1ccn(C)c1=O (stereo not shown) [Compound 39, 1,3-Dihydro-1-methyl-3-[1-methyl-4-(1-pyrrolidinyl)-2-butynyl]-2H-imidazol-2-one]
- Ki (CNS cholinergic receptor [1]; [4]): 88 nM
- Ki (CNS cholinergic receptor [2]): 9 nM
- ED50 [3, 5]: > 30 mg/kg

Compound: CN(C)CC#CCN1CCNC1=O [Compound 33, 1-[4-(Dimethylamino)-2-butynyl]-2-imidazolidinone]
- Ki (CNS cholinergic receptor [1]; [4]): > 10000 nM
- Ki (CNS cholinergic receptor [2]): 43 nM
- ED50 [3, 5]: > 100 mg/kg

Compound: O=c1[nH]ccn1CC#CCN1CCCC1 [Compound 38, 1,3-Dihydro-1-[4-(1-pyrrolidinyl)-2-butynyl]-2H-imidazol-2-one]
- Ki (CNS cholinergic receptor [1]; [4]): > 10000 nM
- Ki (CNS cholinergic receptor [2]): 33 nM
- ED50 [3, 5]: > 2 mg/kg

Compound: CCN(CC)CC#CCN1CCNC1=O [Compound 23, 1-[4-(Diethylamino)-2-butynyl]-2-imidazolidinone]
- Ki (CNS cholinergic receptor [1]; [4]): > 10000 nM
- Ki (CNS cholinergic receptor [2]): 425 nM
- ED50 [3, 5]: > 100 mg/kg

Compound: CCN1CCN(CC#CCN2CCCC2)C1=O [Compound 30, 1-Ethyl-3-[4-(1-pyrrolidinyl)-2-butynyl]-2-imidazolidinone]
- Ki (CNS cholinergic receptor [1]; [4]): > 10000 nM
- Ki (CNS cholinergic receptor [2]): 697 nM
- ED50 [3, 5]: > 30 mg/kg
